US20250352539A1, “COMBINATION THERAPY FOR TREATING CANCER” (AstraZeneca AB, priority 2022, published 2025)
Several values for one entry are separate records, joined by “and”; a condition that tells them apart may be missing. Equal values may be shown once.

Assays:
Assay in all cases: 10-day Cell Titre Glo combination screen
Type in all cases: cell-based
NCI-H838 = conditions: Homo sapiens; NCI-H838 lung; monotherapy; read-out: mono AC50
Description: (§1) The Highest Single Agent (HSA) model is used to determine a combination's synergy score (and is based simply on the intuition that if a combination's effect exceeds the effect level of each of its constituents, there must be some combination interaction). Mathematically, the HSA model describes simple superposition of the single agent curves:
(§2) where CX,Y are the concentrations of the X and Y compound, and IX and IY are inhibitions of the single agents at CX,Y. It is also useful to calculate a volume score (HSA Volume) between the data and the HSA surface to characterise the overall strength of combination effects. Empirically derived combination matrices are compared to their respective HSA additivity models constructed from experimentally collected single agent dose response curves. Summation of this excess additivity across the dose response matrix is referred to HSA Volume.
(§3) Potency shifting can also be scored using combination index (CI). For a chosen iso-effect level (ICut), CI is calculated as: […]
(§4) where (CX/ECX) for a particular data point is the ratio of the X compound's measured concentration to its effective concentration at the chosen effect level. The CI is a rough estimate of how much drug was needed in combination relative to the single agent doses required to achieve the chosen effect level. CI values in the range of 0.5-0.7 are typical for in vitro measurements of current clinical combinations. The CI error (σCI) is calculated using standard error propagation through the CI calculation based on the isobologram errors.
(§5) This combination screen was a 10-day assay using Cell Titre Glo as the readout for viability.
(§6) The assay was performed in 384 well plates, with 1 cell line and 4 drug-drug combinations per plate dosed in a 6×6 matrix. A day zero reading was measured to determine growth inhibition. GenedataScreener was used to input the raw values for every well, and the software was programmed to normalise the values to the day zero and DMSO control values.
(§7) The CellTiter-Glo® Luminescent Cell Viability Assay is a homogeneous method to determine the number of viable cells in culture based on quantitation of the ATP present, which signals the presence of metabolically active cells. It relies on the properties of a proprietary thermostable luciferase (Ultra-Glo™ Recombinant Luciferase), which generates a stable “glow-type” luminescent signal and improves performance across a wide range of assay conditions.
(§8) The following information was reported: Synergy scores (HSA); combination index values; AC50 (half-maximal activity concentration) monotherapy values.

MDA-MB-157 = conditions: Homo sapiens; MDA-MB-157 breast; monotherapy; read-out: mono AC50
Description: as §1, §2, §3, §4, §5, §6, §7, §8

HCC15 = HCC15 lung; monotherapy; read-out: mono AC50
Description: as §1, §2, §3, §4, §5, §6, §7, §8

SK-BR-3 = conditions: Homo sapiens; SK-BR-3 breast; monotherapy; read-out: mono AC50
Description: as §1, §2, §3, §4, §5, §6, §7, §8

T47D = conditions: Homo sapiens; T47D breast; monotherapy; read-out: mono AC50
Description: as §1, §2, §3, §4, §5, §6, §7, §8

HOP62 = conditions: Homo sapiens, HOP-62; HOP62 lung; monotherapy; read-out: mono AC50
Description: as §1, §2, §3, §4, §5, §6, §7, §8

NCI-H1573 = conditions: Homo sapiens, NCI-H1573, 240 h, NCI-H1573 lung; monotherapy; read-out: mono AC50
Description: as §1, §2, §3, §4, §5, §6, §7, §8

PC-9 = conditions: Homo sapiens; PC-9 lung; monotherapy; read-out: mono AC50
Description: as §1, §2, §3, §4, §5, §6, §7, §8

BT474C1 = BT474C1 breast; monotherapy; read-out: mono AC50
Description: as §1, §2, §3, §4, §5, §6, §7, §8

HCC1143 = conditions: Homo sapiens; HCC1143 breast; monotherapy; read-out: mono AC50
Description: as §1, §2, §3, §4, §5, §6, §7, §8

MCF7 T52 = conditions: Homo sapiens; MCF7 T52 breast; monotherapy; read-out: mono AC50
Description: as §1, §2, §3, §4, §5, §6, §7, §8

NCI-H2085 = NCI-H2085 lung; monotherapy; read-out: mono AC50
Description: as §1, §2, §3, §4, §5, §6, §7, §8

NCI-H1299 = conditions: Homo sapiens; NCI-H1299 lung; monotherapy; read-out: mono AC50
Description: as §1, §2, §3, §4, §5, §6, §7, §8

ZR-75-1 = conditions: Homo sapiens; ZR-75-1 breast; monotherapy; read-out: mono AC50
Description: as §1, §2, §3, §4, §5, §6, §7, §8

NCI-H810 = conditions: Homo sapiens; NCI-H810 lung; monotherapy; read-out: mono AC50
Description: as §1, §2, §3, §4, §5, §6, §7, §8

NCI-H441 = conditions: Homo sapiens; NCI-H441 lung; monotherapy; read-out: mono AC50
Description: as §1, §2, §3, §4, §5, §6, §7, §8

HCC1187 = conditions: Homo sapiens; HCC1187 breast; monotherapy; read-out: mono AC50
Description: as §1, §2, §3, §4, §5, §6, §7, §8

MCF7 = conditions: Homo sapiens; MCF7 breast; monotherapy; read-out: mono AC50
Description: as §1, §2, §3, §4, §5, §6, §7, §8

MDA-MB-231 = conditions: Homo sapiens; MDA-MB-231 breast; monotherapy; read-out: mono AC50
Description: as §1, §2, §3, §4, §5, §6, §7, §8

NCI-H1792 = conditions: Homo sapiens; NCI-H1792 lung; monotherapy; read-out: mono AC50
Description: as §1, §2, §3, §4, §5, §6, §7, §8

HCC1954 = conditions: Homo sapiens; HCC1954 breast; monotherapy; read-out: mono AC50
Description: as §1, §2, §3, §4, §5, §6, §7, §8

SW1573 = conditions: Homo sapiens; SW1573 lung; monotherapy; read-out: mono AC50
Description: as §1, §2, §3, §4, §5, §6, §7, §8

NCI-H1666 = conditions: Homo sapiens; NCI-H1666 lung; monotherapy; read-out: mono AC50
Description: as §1, §2, §3, §4, §5, §6, §7, §8

CAL-51 = conditions: Homo sapiens; CAL-51 breast; monotherapy; read-out: mono AC50
Description: as §1, §2, §3, §4, §5, §6, §7, §8

HCC1937 = conditions: Homo sapiens; HCC1937 breast; monotherapy; read-out: mono AC50
Description: as §1, §2, §3, §4, §5, §6, §7, §8

With `C[C@@H]1COCCN1c1cc(C2([S@](C)(=N)=O)CC2)nc(-c2ccnc3[nH]ccc23)n1` [AZD6738, 4-{4-[(3R)-3-Methylmorpholin-4-yl]-6-[1-((R)—S-methylsulfonimidoyl)cyclopropyl]pyrimidin-2-yl}-1H-pyrrolo[2,3-b]-pyridine] the AC50 (NCI-H838) was 274 nM, the AC50 (MDA-MB-157) was 732 nM and the AC50 (HCC15) was 7020 nM. The AC50 (SK-BR-3) was 542 nM, the AC50 (T47D) was 6850 nM and the AC50 (HOP62) was 590 nM. For the same compound, the AC50 (NCI-H1573) was 1390 nM, the AC50 (PC-9) was 510 nM and the AC50 (BT474C1) was 3830 nM. For the same compound, the AC50 (HCC1143) was 460 nM, the AC50 (MCF7 T52) was 1390 nM and the AC50 (NCI-H2085) was 4750 nM and 5490 nM. The AC50 (NCI-H1299) was 3180 nM, the AC50 (ZR-75-1) was 6030 nM and the AC50 (NCI-H810) was 3350 nM. For the same compound, the AC50 (NCI-H441) was 2960 nM, the AC50 (HCC1187) was 531 nM and the AC50 (MCF7) was 1120 nM. For the same compound, the AC50 (MDA-MB-231) was 866 nM, the AC50 (NCI-H1792) was 677 nM and the AC50 (HCC1954) was 2560 nM. It also gave an AC50 (SW1573) of 3650 nM, an AC50 (NCI-H1666) of 767 nM and an AC50 (CAL-51) of 1360 nM. For the same compound, the AC50 (HCC1937) was 570 nM.
